Experimental data reported in patent US20060040312A1 (priority 1999, published 2006).
pEC50: −log10 of the molar value. Several values for one entry are separate records, joined by “and”; a condition that tells them apart may be missing. Identical values can stand only once. Entries after “also recorded” stand apart in the source; their conditions may differ. Positions of bridges follow the written chain, without caps; N, C: chain ends. Non-standard residues stand in square brackets, D forms with d. Residues, ends and D or L forms follow the SMILES beside them. Hyp = O=C(O)[C@@H]1C[C@@H](O)CN1

What was measured:
Kv1.3 = target: T1, Kv1.3 (Homo sapiens, UniProt P22001); conditions: cited from earlier work
T1 construct: host or cells: oocytes
T1 sequence (P22001 whole entry): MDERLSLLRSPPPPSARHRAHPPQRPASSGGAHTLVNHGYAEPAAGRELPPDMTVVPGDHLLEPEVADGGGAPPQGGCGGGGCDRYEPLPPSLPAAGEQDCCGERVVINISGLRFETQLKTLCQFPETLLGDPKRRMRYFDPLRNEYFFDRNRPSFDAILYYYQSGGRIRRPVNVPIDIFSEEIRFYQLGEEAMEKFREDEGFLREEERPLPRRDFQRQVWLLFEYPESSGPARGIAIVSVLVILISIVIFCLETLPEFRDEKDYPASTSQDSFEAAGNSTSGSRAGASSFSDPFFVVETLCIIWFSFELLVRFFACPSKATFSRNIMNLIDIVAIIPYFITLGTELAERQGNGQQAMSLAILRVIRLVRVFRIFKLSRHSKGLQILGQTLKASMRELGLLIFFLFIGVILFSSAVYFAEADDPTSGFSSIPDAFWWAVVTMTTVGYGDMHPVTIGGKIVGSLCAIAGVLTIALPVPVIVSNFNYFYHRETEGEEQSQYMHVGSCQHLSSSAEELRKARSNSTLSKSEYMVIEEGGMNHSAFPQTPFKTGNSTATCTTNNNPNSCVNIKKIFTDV

[1] = tested on: primary cultures of cortex; assay type: cell-based, rat
[2] = tested on: single tracheal, neuronal or myocyte cells; assay type: cell-based, rat
[3] = tested on: histamine-contracted, isolated Guinea pig tracheal segments
[4] = tested on: primary cultures of cortex; assay type: cell-based, rat; remark: listed apart in the source
[5] = tested on: primary cultures of ventricular myocytes; assay type: cell-based, rat
[6] = tested on: primary cortical cultures
[7] = tested on: primary cultures of cortex
Kv1.4 = Kv1.4 (Homo sapiens, UniProt P22459); conditions: cited from earlier work
Chain of Kv1.4 (P22459 whole entry): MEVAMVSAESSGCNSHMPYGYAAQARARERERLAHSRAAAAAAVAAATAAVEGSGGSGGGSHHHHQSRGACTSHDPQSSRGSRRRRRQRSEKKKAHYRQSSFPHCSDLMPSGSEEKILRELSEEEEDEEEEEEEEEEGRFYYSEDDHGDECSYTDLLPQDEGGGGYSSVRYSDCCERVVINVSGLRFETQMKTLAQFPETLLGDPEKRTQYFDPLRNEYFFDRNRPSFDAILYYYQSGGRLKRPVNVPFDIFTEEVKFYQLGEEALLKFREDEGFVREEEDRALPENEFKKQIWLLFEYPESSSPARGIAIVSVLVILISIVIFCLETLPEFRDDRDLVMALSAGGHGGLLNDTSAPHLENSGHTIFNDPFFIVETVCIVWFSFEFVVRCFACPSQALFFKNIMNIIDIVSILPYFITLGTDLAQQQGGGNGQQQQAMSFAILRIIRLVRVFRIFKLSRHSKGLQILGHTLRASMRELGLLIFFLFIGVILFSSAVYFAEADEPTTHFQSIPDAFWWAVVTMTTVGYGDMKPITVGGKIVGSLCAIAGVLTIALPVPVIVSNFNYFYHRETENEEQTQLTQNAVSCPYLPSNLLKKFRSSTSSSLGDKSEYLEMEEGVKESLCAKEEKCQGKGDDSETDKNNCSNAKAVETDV

[8] = tested on: primary cultures of cortex; assay type: cell-based, rat; remark: listed apart in the source
[9] = rat, in vivo, iv
cardiac myocytes = assay type: cell-based, rat
cortex = assay type: cell-based, rat
[10] = tested on: primary cultures of ventricular myocytes
[11] = tested on: primary cultures of cortical neurons; assay type: cell-based, rat
Kv1.1 = target: T2, Kv1.1 (Homo sapiens, UniProt Q09470); conditions: cited from earlier work
T2 construct: host or cells: oocytes
T2 sequence (Q09470 whole entry): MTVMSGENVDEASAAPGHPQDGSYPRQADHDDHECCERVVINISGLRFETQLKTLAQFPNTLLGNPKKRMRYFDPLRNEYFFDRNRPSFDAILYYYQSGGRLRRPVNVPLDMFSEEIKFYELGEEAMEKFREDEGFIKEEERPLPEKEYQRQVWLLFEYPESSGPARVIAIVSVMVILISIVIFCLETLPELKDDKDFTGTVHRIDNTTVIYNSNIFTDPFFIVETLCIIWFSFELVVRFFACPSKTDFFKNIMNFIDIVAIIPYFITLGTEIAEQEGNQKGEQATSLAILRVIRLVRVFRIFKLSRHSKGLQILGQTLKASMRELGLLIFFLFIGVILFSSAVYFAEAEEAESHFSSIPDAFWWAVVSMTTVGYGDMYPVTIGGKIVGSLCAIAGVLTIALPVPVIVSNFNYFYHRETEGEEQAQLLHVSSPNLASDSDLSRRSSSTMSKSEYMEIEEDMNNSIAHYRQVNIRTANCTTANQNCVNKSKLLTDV

trachea = assay type: cell-based, rat
F425G Shaker mutation = F425G Shaker mutation (Drosophila melanogaster, UniProt P08510, F425G); conditions: cited from earlier work
Chain of F425G Shaker mutation (P08510 whole entry F425G): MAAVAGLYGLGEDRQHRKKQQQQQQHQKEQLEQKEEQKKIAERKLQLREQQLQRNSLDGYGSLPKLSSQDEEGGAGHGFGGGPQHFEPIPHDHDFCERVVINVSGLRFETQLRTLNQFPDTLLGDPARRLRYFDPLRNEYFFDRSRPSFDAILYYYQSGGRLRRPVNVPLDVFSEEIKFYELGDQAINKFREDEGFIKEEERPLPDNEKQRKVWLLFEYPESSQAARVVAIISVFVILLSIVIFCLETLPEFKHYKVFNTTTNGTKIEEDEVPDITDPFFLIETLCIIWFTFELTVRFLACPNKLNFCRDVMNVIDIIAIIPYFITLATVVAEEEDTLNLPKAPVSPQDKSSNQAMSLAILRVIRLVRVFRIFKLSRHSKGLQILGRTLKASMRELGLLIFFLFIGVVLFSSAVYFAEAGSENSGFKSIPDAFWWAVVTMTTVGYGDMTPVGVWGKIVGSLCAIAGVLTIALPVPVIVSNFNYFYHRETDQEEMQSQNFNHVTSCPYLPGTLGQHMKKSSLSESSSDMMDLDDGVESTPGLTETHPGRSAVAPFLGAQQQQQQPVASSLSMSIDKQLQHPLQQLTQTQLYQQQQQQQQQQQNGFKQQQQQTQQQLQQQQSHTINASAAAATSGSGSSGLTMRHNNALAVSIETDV

[12] = target: Shaker H4 potassium channel (Drosophila melanogaster, UniProt P08510); conditions: cited from earlier work
Chain of Shaker H4 potassium channel (P08510 whole entry): as the sequence (P08510 whole entry F425G) above, with G425F counted along it

[13] = tested on: cardiac ventricular myocytes; assay type: cell-based, rat

CC[C@H](C)[C@@H]1NC(=O)[C@H](CCCNC(=N)N)NC(=O)[C@@H](N)CSSC[C@@H]2NC(=O)[C@@H]3CSSC[C@@H](C(=O)N[C@H](C(=O)O)C(C)C)NC(=O)[C@H](CCCCN)NC(=O)[C@H](CC(N)=O)NC(=O)[C@H](Cc4ccccc4)NC(=O)[C@H](CCCNC(=N)N)NC(=O)[C@H](CC(N)=O)NC(=O)[C@H](CSSC[C@H](NC(=O)[C@H](CCCCN)NC(=O)[C@H](CCC(N)=O)NC(=O)[C@H](CC(N)=O)NC(=O)[C@@H]4C[C@@H](O)CN4C1=O)C(=O)N[C@@H](Cc1ccccc1)C(=O)N[C@@H](CCC(N)=O)C(=O)N[C@@H](Cc1c[nH]cn1)C(=O)N[C@@H](CC(C)C)C(=O)N[C@@H](CC(=O)O)C(=O)N[C@@H](CC(=O)O)C(=O)N3)NC(=O)[C@H](CCCCN)NC(=O)[C@H](CCCNC(=N)N)NC(=O)[C@H](CO)NC2=O [κ-PVIIA, kappa-conotoxin PVIIA] (H-CRI[Hyp]NQKCFQHLDDCCSRKCNRFNKCV-OH; disulfide 1-16, 8-20, 15-26)
effects on Kv1.3 (Kv1.3): no effects
change in intracellular K+ concentration (PBFI) [1]: reduction
protection against hypoxia-induced changes in membrane potential (current-clamp) [2]: A similar result
relaxation of histamine-contracted tracheal segments [3]: able to relax
initial glutamate-induced depolarization (current-clamp) [4]: prevents the initial glutamate-induced depolarization
protection against hypoxia (intracellular calcium, fluo-3) [5]: able to provide protection against hypoxia
protease activity (cytotoxicity) [6]: no detectable protease activity
pEC50 [7]: 15.10
activity on Kv1.4 (Kv1.4): no detectable activity
degree of glutamate-induced excitotoxicity (cortical cells): effectively reduces the degree of glutamate-induced excitotoxicity in a dose-dependant manner
protection against delayed cytotoxic effects of glutamate (cortical cells): very effective protection
current corrected for cell capacitance [8]: 2.4±0.7 pA/pf
current evoked [8]: 26.2±6.2 pA
reversal potential of the evoked current [8]: ~−20 mV
effect on blood pressure [9]: no effect
effect on heart rate [9]: no effect
current corrected for cell capacitance (cardiac myocytes): 4.6±0.4 pA/pf
current evoked (cardiac myocytes): 87.7±5.9 pA
induction of currents (cardiac myocytes): induces glibenclamide-sensitive currents
protection against hypoxia (intracellular calcium, fluo-3) (cortex): able to provide protection against hypoxia
pEC50 [10]: 15.05
change in intracellular calcium (Fluo-3 fluorescence) [11]: −2.15±0.95% and −8.8±3.9%
effect on intracellular calcium (Fluo-3) [11]: significant reduction
activity on Kv1.1 (Kv1.1): no detectable activity; also recorded: no effects
protection against hypoxia (intracellular calcium, fluo-3) (trachea): able to provide protection against hypoxia
effect of F425G Shaker mutation on toxin affinity / sensitivity (F425G Shaker mutation): abolishes
block / inhibition of the Shaker channel [12]: block
protection against hypoxia-induced depolarization [13]: prevented any hypoxia-induced changes in membrane potential; also recorded: strong protective effect; also recorded: confers protection
